Measured values as given in patent US20170232083A1, “METHODS OF DIAGNOSIS AND TREATMENT OF CELIAC DISEASE IN CHILDREN” (priority 2014, published 2017).

Tested on: PBMC (polyclonal gluten-specific T cells) of paediatric and adult CD patients
Assay: IFN-γ ELISpot of PBMC after 3 day oral wheat challenge (SFU, % of maximal peptide response, dominance scores, EC50; Examples 5-6)
Assay type: cell-based, human
Settings: for IFN-γ ELISpot response: after oral wheat challenge; for Cross-reactive T cell response: following wheat challenge
[1] = patient A, 11-17 yrs, cut-off 10 SFU
[2] = patient E, H, 11-17 yrs, cut-off 10 SFU
[3] = patient F, 11-17 yrs, cut-off 10 SFU
[4] = patient G, 11-17 yrs, cut-off 10 SFU
[5] = patient H (HLA-DQ2.5 homozygote), 3-5yrs, cut-off 10 SFU
[6] = patient H, 11-17 yrs, cut-off 10 SFU
[7] = patient ID not given, 11-17 yrs, cut-off 10 SFU
[8] = patient N, 3-5yrs, cut-off 10 SFU
[9] = patient P, 11-17 yrs, cut-off 21.6 SFU
[10] = patient Q, 11-17 yrs, cut-off 10 SFU
[11] = patient U, H, 11-17 yrs, cut-off 10 SFU
[12] = patient V, 6-10 yrs, cut-off 10 SFU
[13] = patient Y, 6-10 yrs, cut-off 10 SFU
[14] = patient eleven, 6-10 yrs, cut-off 10 SFU
[15] = patient four, 3-5yrs, cut-off 10 SFU
[16] = patient seven, 6-10 yrs, cut-off 10.5 SFU
[17] = patient ten, 3-5yrs, cut-off 10 SFU
[18] = patient three, 6-10 yrs, cut-off 10.5 SFU
[19] = patient twelve, 11-17 yrs, cut-off 10 SFU
[20] = patient two, 3-5yrs, cut-off 10 SFU
[21] = subject I (3-5yrs/6-10yrs part)
[22] = subject J (3-5yrs/6-10yrs part)
[23] = subject K (3-5yrs/6-10yrs part)
[24] = subject V (3-5yrs/6-10yrs part)
[25] = subject W (3-5yrs/6-10yrs part)
[26] = subject Y (3-5yrs/6-10yrs part)
[27] = subject five (3-5yrs/6-10yrs part)
[28] = subject seven (3-5yrs/6-10yrs part)
[29] = subject six (3-5yrs/6-10yrs part)
[30] = subject ten (3-5yrs/6-10yrs part)
[31] = subject two (3-5yrs/6-10yrs part)

LPYPQPQLPYPQP
IFN-γ ELISpot response [1]: 3 SFU
IFN-γ ELISpot response [2]: 61 SFU
Significant response as percentage of maximal peptide SFU (patient E, max peptide 224 SFU): ′′ (21-40% = ′′)
IFN-γ ELISpot response [3]: 120 SFU
Significant response as percentage of maximal peptide SFU (patient F, max peptide 178 SFU): ′′′ (41-70% = ′′′)
IFN-γ ELISpot response [4]: 2 SFU
IFN-γ ELISpot response [5]: 13 SFU
IFN-γ ELISpot response [6]: 13 SFU
Significant response as percentage of maximal peptide SFU (patient H, max peptide 17 SFU): + (>70% = +)
IFN-γ ELISpot response [7]: 49 SFU
Significant response as percentage of maximal peptide SFU (patient ID not given, max peptide 95 SFU): ′′′ (41-70% = ′′′)
Significant response as percentage of maximal peptide SFU (patient II, max peptide 15 SFU): + (>70% = +)
Significant response as percentage of maximal peptide SFU (patient J, max peptide 196 SFU): ′′ (21-40% = ′′)
Significant response as percentage of maximal peptide SFU (patient K, max peptide 53 SFU): ′′ (21-40% = ′′)
Significant response as percentage of maximal peptide SFU (patient M, max peptide 48 SFU): ′′ (21-40% = ′′)
IFN-γ ELISpot response [8]: 3 SFU
IFN-γ ELISpot response [9]: 17 SFU
IFN-γ ELISpot response [10]: 53 SFU
Significant response as percentage of maximal peptide SFU (patient Q, max peptide 97 SFU): ′′′ (41-70% = ′′′)
IFN-γ ELISpot response [11]: 25 SFU
Significant response as percentage of maximal peptide SFU (patient U, max peptide 81 SFU): ′′ (21-40% = ′′)
IFN-γ ELISpot response [12]: 18 SFU
Significant response as percentage of maximal peptide SFU (patient V, max peptide 35 SFU): ′′′ (41-70% = ′′′)
IFN-γ ELISpot response [13]: 16 SFU
Significant response as percentage of maximal peptide SFU (patient Y, max peptide 16 SFU): + (>70% = +)
IFN-γ ELISpot response [14]: 25 SFU
Significant response as percentage of maximal peptide SFU (patient eleven, max peptide 57 SFU): ′′′ (41-70% = ′′′)
Significant response as percentage of maximal peptide SFU (patient five, max peptide 48 SFU): ′′ (21-40% = ′′)
IFN-γ ELISpot response [15]: 22 SFU
Significant response as percentage of maximal peptide SFU (patient four, max peptide 44 SFU): ′′′ (41-70% = ′′′)
IFN-γ ELISpot response [16]: 8 SFU
IFN-γ ELISpot response [17]: 7 SFU
IFN-γ ELISpot response [18]: 75 SFU
IFN-γ ELISpot response [19]: 5 SFU
IFN-γ ELISpot response [20]: 14 SFU
Significant response as percentage of maximal peptide SFU (patient two, max peptide 60 SFU): ′′ (21-40% = ′′)

QPPFSEEQEQPLPQ [gluten peptide described by Vader et al, reference compound]
positive polyclonal T cell response after wheat challenge, proportion (Example 5, 2/30): 6.7%
polyclonal T cell responses following wheat challenge, volunteers (Example 6, 2/30): 6.7%

PFPQQPQQPFPQP
IFN-γ ELISpot response [1]: 0 SFU
IFN-γ ELISpot response [2]: 0 SFU
IFN-γ ELISpot response [3]: 1 SFU
IFN-γ ELISpot response [4]: 0 SFU
IFN-γ ELISpot response [5]: 4 SFU
IFN-γ ELISpot response [6]: 2 SFU
IFN-γ ELISpot response [7]: 0 SFU
IFN-γ ELISpot response [8]: 2 SFU
IFN-γ ELISpot response [9]: 14 SFU
IFN-γ ELISpot response [10]: 9 SFU
IFN-γ ELISpot response [11]: 2 SFU
IFN-γ ELISpot response [12]: 3 SFU
IFN-γ ELISpot response [13]: 6 SFU
IFN-γ ELISpot response [14]: 3 SFU
IFN-γ ELISpot response [15]: 0 SFU
IFN-γ ELISpot response [16]: 1 SFU
IFN-γ ELISpot response [17]: 12 SFU
Significant response as percentage of maximal peptide SFU (patient ten, max peptide 14.5 SFU): + (>70% = +)
IFN-γ ELISpot response [18]: 5 SFU
IFN-γ ELISpot response [19]: 2 SFU
IFN-γ ELISpot response [20]: 3 SFU

QPFPQPEQPIPQQ
Cross-reactive T cell response (subject A, 11-17yrs): 3 SFU
Significant response as a percentage of maximal peptide SFU (subject D, 11-17yrs): + (>70% = +)
Cross-reactive T cell response (subject D, 11-17yrs): 29 SFU
Significant response as a percentage of maximal peptide SFU (subject E, 11-17yrs): ′′ (21-40% = ′′)
Cross-reactive T cell response (subject E, 11-17yrs): 87 SFU
Significant response as a percentage of maximal peptide SFU (subject F, 11-17yrs): ′′ (21-40% = ′′)
Cross-reactive T cell response (subject F, 11-17yrs): 62 SFU
Cross-reactive T cell response (subject G, 11-17yrs): 4 SFU
Cross-reactive T cell response (subject H): 1 SFU
Cross-reactive T cell response [21]: 3 SFU
Significant response as a percentage of maximal peptide SFU (subject J): ′′′ (41-70% = ′′′)
Cross-reactive T cell response [22]: 132 SFU
Significant response as a percentage of maximal peptide SFU (subject K): ′ (11-20% = ′)
Cross-reactive T cell response [23]: 11 SFU
Significant response as a percentage of maximal peptide SFU (subject P, 11-17yrs): + (>70% = +)
Cross-reactive T cell response (subject P, 11-17yrs): 48 SFU
Significant response as a percentage of maximal peptide SFU (subject Q, 11-17yrs): ′′′ (41-70% = ′′′)
Cross-reactive T cell response (subject Q, 11-17yrs): 64 SFU
Significant response as a percentage of maximal peptide SFU (subject T, 11-17yrs): + (>70% = +)
Cross-reactive T cell response (subject T, 11-17yrs): 87 SFU
Significant response as a percentage of maximal peptide SFU (subject U, 11-17yrs): ′′′ (41-70% = ′′′)
Cross-reactive T cell response (subject U, 11-17yrs): 41 SFU
Significant response as a percentage of maximal peptide SFU (subject V): ′′′ (41-70% = ′′′)
Cross-reactive T cell response [24]: 17 SFU
Cross-reactive T cell response [25]: 5 SFU
Cross-reactive T cell response [26]: 7 SFU
Significant response as a percentage of maximal peptide SFU (subject five): + (>70% = +)
Cross-reactive T cell response [27]: 44 SFU
Cross-reactive T cell response (subject nine, 11-17yrs): 1 SFU
Cross-reactive T cell response [28]: 7 SFU
Significant response as a percentage of maximal peptide SFU (subject six): + (>70% = +)
Cross-reactive T cell response [29]: 12 SFU
Cross-reactive T cell response [30]: 4 SFU
Significant response as a percentage of maximal peptide SFU (subject two): ′′ (21-40% = ′′)
Cross-reactive T cell response [31]: 24 SFU

FPQTEQPEQPFPQP
Cross-reactive T cell response (subject A, 11-17yrs): 1 SFU
Cross-reactive T cell response (subject D, 11-17yrs): 0 SFU
Cross-reactive T cell response (subject E, 11-17yrs): 3 SFU
Cross-reactive T cell response (subject F, 11-17yrs): 2 SFU
Cross-reactive T cell response (subject G, 11-17yrs): 2 SFU
Cross-reactive T cell response (subject H): 1 SFU
Cross-reactive T cell response [21]: 0 SFU
Significant response as a percentage of maximal peptide SFU (subject J): ′′ (21-40% = ′′)
Cross-reactive T cell response [22]: 67 SFU
Significant response as a percentage of maximal peptide SFU (subject K): ′′ (21-40% = ′′)
Cross-reactive T cell response [23]: 19 SFU
Cross-reactive T cell response (subject P, 11-17yrs): 3 SFU
Significant response as a percentage of maximal peptide SFU (subject Q, 11-17yrs): ′ (11-20% = ′)
Cross-reactive T cell response (subject Q, 11-17yrs): 10 SFU
Cross-reactive T cell response (subject T, 11-17yrs): 7 SFU
Cross-reactive T cell response (subject U, 11-17yrs): 5 SFU
Cross-reactive T cell response [24]: 6 SFU
Cross-reactive T cell response [25]: 5 SFU
Cross-reactive T cell response [26]: 3 SFU
Cross-reactive T cell response [27]: 5 SFU
Cross-reactive T cell response (subject nine, 11-17yrs): 0 SFU
Cross-reactive T cell response [28]: 5 SFU
Cross-reactive T cell response [29]: 4 SFU
Significant response as a percentage of maximal peptide SFU (subject ten): + (>70% = +)
Cross-reactive T cell response [30]: 13 SFU
Cross-reactive T cell response [31]: 3 SFU

QPFPQPEQPIPYQ
Cross-reactive T cell response (subject A, 11-17yrs): 8 SFU
Significant response as a percentage of maximal peptide SFU (subject D, 11-17yrs): + (>70% = +)
Cross-reactive T cell response (subject D, 11-17yrs): 23 SFU
Significant response as a percentage of maximal peptide SFU (subject E, 11-17yrs): ′′ (21-40% = ′′)
Cross-reactive T cell response (subject E, 11-17yrs): 86 SFU
Significant response as a percentage of maximal peptide SFU (subject F, 11-17yrs): ′′′ (41-70% = ′′′)
Cross-reactive T cell response (subject F, 11-17yrs): 84 SFU
Cross-reactive T cell response (subject G, 11-17yrs): 2 SFU
Cross-reactive T cell response (subject H): 3 SFU
Cross-reactive T cell response [21]: 5 SFU
Significant response as a percentage of maximal peptide SFU (subject J): ′′′ (41-70% = ′′′)
Cross-reactive T cell response [22]: 124 SFU
Significant response as a percentage of maximal peptide SFU (subject K): ′′ (21-40% = ′′)
Cross-reactive T cell response [23]: 21 SFU
Significant response as a percentage of maximal peptide SFU (subject P, 11-17yrs): ′′′ (41-70% = ′′′)
Cross-reactive T cell response (subject P, 11-17yrs): 33 SFU
Significant response as a percentage of maximal peptide SFU (subject Q, 11-17yrs): ′′′ (41-70% = ′′′)
Cross-reactive T cell response (subject Q, 11-17yrs): 58 SFU
Significant response as a percentage of maximal peptide SFU (subject T, 11-17yrs): + (>70% = +)
Cross-reactive T cell response (subject T, 11-17yrs): 84 SFU
Significant response as a percentage of maximal peptide SFU (subject U, 11-17yrs): ′′′ (41-70% = ′′′)
Cross-reactive T cell response (subject U, 11-17yrs): 55 SFU
Significant response as a percentage of maximal peptide SFU (subject V): ′′′ (41-70% = ′′′)
Cross-reactive T cell response [24]: 22 SFU
Cross-reactive T cell response [25]: 11 SFU
Significant response as a percentage of maximal peptide SFU (subject Y): ′′′ (41-70% = ′′′)
Cross-reactive T cell response [26]: 11 SFU
Significant response as a percentage of maximal peptide SFU (subject five): ′′′ (41-70% = ′′′)
Cross-reactive T cell response [27]: 30 SFU
Cross-reactive T cell response (subject nine, 11-17yrs): 0 SFU
Cross-reactive T cell response [28]: 8 SFU
Significant response as a percentage of maximal peptide SFU (subject six): + (>70% = +)
Cross-reactive T cell response [29]: 11 SFU
Cross-reactive T cell response [30]: 9 SFU
Significant response as a percentage of maximal peptide SFU (subject two): ′′′ (41-70% = ′′′)
Cross-reactive T cell response [31]: 31 SFU
